From patent US20240391948A1, “NOVEL COMPOUND THAT INHIBITS TNF-ALPHA GENERATION AND INFLAMMASOME ACTIVITY AND PREPARATION METHOD THEREFOR” (SHAPERON INC., priority 2021, published 2024)

Assays:
Format in all cases: cell-based
[1] = test system: J774A.1 (Mouse BALB/c monocyte macrophage cell line) cells; assay: LPS+ATP-induced IL-1β secretion inhibition in J774A.1 cells; settings: J774.A1, 1 μM compound, graded compared to taurodeoxycholic acid (positive control), read-out: IL-1β production inhibition grade
Protocol: (§1) To evaluate anti-inflammatory efficacy, an inflammatory response was induced in J774A.1 (Mouse BALB/c monocyte macrophage cell line) cells derived from mouse macrophages by LPS (lipopolysaccharide) and LPS+ATP (adenosine triphosphate), and the efficacy of taurine-bile acid derivatives to inhibit the production of inflammatory cytokines (IL-1β, TNF-α) was measured. After treating J774A.1 cells with 1 μM of a taurine-bile acid derivative, the degree to which the secretion of TNF-α among cytokines was suppressed was measured in the experimental group in which an inflammatory response was induced by LPS, and the extent to which IL-1β secretion among cytokines was suppressed was measured in the experimental group in which an inflammatory response was induced with LPS+ATP. The ability of taurine-bile acid derivatives to inhibit cytokine production was graded compared to taurodeoxycholic acid, a positive control. The grading criteria are A: over 100%, B: over 50% and under 100%, C: between 20% and under 50%, and D: under 20%.

[2] = test system: U937 cells (human monocytic cell line); assay: BzATP-induced IL-1β secretion inhibition in PMA-differentiated U937 cells; settings: U-937, U937 cells differentiated with PMA, read-out: IL-1β production inhibition grade (IC50)
Protocol: (§2) To evaluate anti-inflammatory efficacy, U937 cells (human monocytic cell line) were differentiated into macrophages using PMA (phorbol 12-myristate 13-acetate) and then induced an inflammatory response with Pam2CSK4 (Pam2CysSerLys4) or BzATP (2′(3′)—O-(4-Benzoylbenzoyl)adenosine 5′-triphosphate), the efficacy of taurine-bile acid derivatives in suppressing inflammatory cytokine (IL-1β, TNF-α) production was measured.
(§3) Using PMA, U937 cells were differentiated into macrophages, and the extent of TNF-α secretion inhibition was measured in an experimental group where taurine-bile acid derivatives was treated, followed by induction of inflammatory response with Pam2CSK4, and in the experimental group in which an inflammatory response was induced with BzATP, the extent to which IL-1β secretion among cytokines was suppressed was measured.
(§4) The ability of taurine-bile acid derivatives to inhibit cytokine production was expressed in terms of IC50 (μM) values. The standards for TNF α inhibition ability are A: less than 0.5, B: 0.5 to less than 1.0, C: 1.0 to less than 2.0, D: 2.0 or more, and the IL-1β inhibition ability grade standards are A: less than 0.05, B: 0.05 to less than 0.10, C: 0.10 or more and less than 0.20, D: 0.20 or more.

[3] = test system: J774A.1 (Mouse BALB/c monocyte macrophage cell line) cells; assay: LPS-induced TNF-α secretion inhibition in J774A.1 cells; settings: J774.A1, 1 μM compound, graded compared to taurodeoxycholic acid (positive control), read-out: TNF-α production inhibition grade
Protocol: as §1

[4] = test system: U937 cells (human monocytic cell line); assay: Pam2CSK4-induced TNF-α secretion inhibition in PMA-differentiated U937 cells; settings: U-937, U937 cells differentiated with PMA, read-out: TNF-α production inhibition grade (IC50)
Protocol: as §2, §3, §4

Structure (SMILES) | inhibition at 1 µM [1] | IC50 [2] | inhibition at 1 µM [3] | IC50 [4]
C[C@H](CCC(=O)N1CCC[C@@H]1CS(=O)(=O)O)[C@H]1CC[C@H]2[C@@H]3CC[C@@H]4C[C@H](O)CC[C@]4(C)[C@H]3C[C@H](O)[C@]12C [NC10036] | > 100% | 100 to 200 nM | < 20% | ≥ 2000 nM
C[C@H](CCC(=O)N1CCC[C@H]1CS(=O)(=O)O)[C@H]1CC[C@H]2[C@@H]3CC[C@@H]4C[C@H](O)CC[C@]4(C)[C@H]3C[C@H](O)[C@]12C [NC10037] | 50 to 100% | ≥ 200 nM | < 20% | < 500 nM
C[C@H](CCC(=O)NC[C@H](C)S(=O)(=O)O)[C@H]1CC[C@H]2[C@@H]3CC[C@@H]4C[C@H](O)CC[C@]4(C)[C@H]3C[C@H](O)[C@]12C [NC10038] | 50 to 100% | 50 to 100 nM | < 20% | ≥ 2000 nM
C[C@H](CCC(=O)NC[C@@H](C)S(=O)(=O)O)[C@H]1CC[C@H]2[C@@H]3CC[C@@H]4C[C@H](O)CC[C@]4(C)[C@H]3C[C@H](O)[C@]12C [NC10039] | 50 to 100% | 50 to 100 nM | 20 to 50% | 500 to 1000 nM
C[C@H](CCC(=O)N[C@@H](CO)CS(=O)(=O)O)[C@H]1CC[C@H]2[C@@H]3CC[C@@H]4C[C@H](O)CC[C@]4(C)[C@H]3C[C@H](O)[C@]12C [NC10040] | < 20% | ≥ 200 nM | < 20% | 1000 to 2000 nM
C[C@H](CCC(=O)N[C@@H]1CCCC[C@@H]1S(=O)(=O)O)[C@H]1CC[C@H]2[C@@H]3CC[C@@H]4C[C@H](O)CC[C@]4(C)[C@H]3C[C@H](O)[C@]12C [NC10041] | < 20% | ≥ 200 nM | < 20% | 500 to 1000 nM
C[C@H](CCC(=O)N[C@H]1CCCC[C@H]1S(=O)(=O)O)[C@H]1CC[C@H]2[C@@H]3CC[C@@H]4C[C@H](O)CC[C@]4(C)[C@H]3C[C@H](O)[C@]12C [NC10042] | < 20% | ≥ 200 nM | < 20% | 500 to 1000 nM
C[C@H](CCC(=O)N[C@@H](C)CS(=O)(=O)O)[C@H]1CC[C@H]2[C@@H]3CC[C@@H]4C[C@H](O)CC[C@]4(C)[C@H]3C[C@H](O)[C@]12C [NC10043] | > 100% | 100 to 200 nM | < 20% | < 500 nM
CC(C)C[C@@H](CS(=O)(=O)O)NC(=O)CC[C@@H](C)[C@H]1CC[C@H]2[C@@H]3CC[C@@H]4C[C@H](O)CC[C@]4(C)[C@H]3C[C@H](O)[C@]12C [NC10045] | 50 to 100% | 50 to 100 nM | < 20% | < 500 nM
CC(C)C[C@H](CS(=O)(=O)O)NC(=O)CC[C@@H](C)[C@H]1CC[C@H]2[C@@H]3CC[C@@H]4C[C@H](O)CC[C@]4(C)[C@H]3C[C@H](O)[C@]12C [NC10046] | 50 to 100% | 100 to 200 nM | < 20% | < 500 nM
C[C@H](CCC(=O)NC1(CS(=O)(=O)O)CC1)[C@H]1CC[C@H]2[C@@H]3CC[C@@H]4C[C@H](O)CC[C@]4(C)[C@H]3C[C@H](O)[C@]12C [NC10047] | 20 to 50% | 100 to 200 nM | < 20% | 500 to 1000 nM
C[C@H](CCC(=O)N1CC[C@H](S(=O)(=O)O)C1)[C@H]1CC[C@H]2[C@@H]3CC[C@@H]4C[C@H](O)CC[C@]4(C)[C@H]3C[C@H](O)[C@]12C [NC10048] | 50 to 100% | 50 to 100 nM | < 20% | < 500 nM
C[C@H](CCC(=O)N1CC[C@@H](S(=O)(=O)O)C1)[C@H]1CC[C@H]2[C@@H]3CC[C@@H]4C[C@H](O)CC[C@]4(C)[C@H]3C[C@H](O)[C@]12C [NC10049] | > 100% | < 50 nM | < 20% | < 500 nM
C[C@H](CCC(=O)N(CCN(C)C)CCS(=O)(=O)O)[C@H]1CC[C@H]2[C@@H]3CC[C@@H]4C[C@H](O)CC[C@]4(C)[C@H]3C[C@H](O)[C@]12C [NC10050] | > 100% | 50 to 100 nM | < 20% | < 500 nM
C[C@H](CCC(=O)N(CCS(=O)(=O)O)Cc1cccnc1)[C@H]1CC[C@H]2[C@@H]3CC[C@@H]4C[C@H](O)CC[C@]4(C)[C@H]3C[C@H](O)[C@]12C [NC10051] | 50 to 100% | 50 to 100 nM | < 20% | 1000 to 2000 nM
C[C@H](CCC(=O)N(CCS(=O)(=O)O)c1ccccc1)[C@H]1CC[C@H]2[C@@H]3CC[C@@H]4C[C@H](O)CC[C@]4(C)[C@H]3C[C@H](O)[C@]12C [NC10052] | 50 to 100% | 50 to 100 nM | 50 to 100% | 1000 to 2000 nM
C[C@H](CCC(=O)NCCC(=O)O)[C@H]1CC[C@H]2[C@@H]3CC[C@@H]4C[C@H](O)CC[C@]4(C)[C@H]3CC[C@]12C [NC10053] | 50 to 100% | 50 to 100 nM | 50 to 100% | 1000 to 2000 nM
C[C@H](CCC(=O)NCCCO)[C@H]1CC[C@H]2[C@@H]3CC[C@@H]4C[C@H](O)CC[C@]4(C)[C@H]3CC[C@]12C [NC10054] | 50 to 100% | 50 to 100 nM | < 20% | 1000 to 2000 nM
C[C@H](CCC(=O)N(C)CCS(=O)(=O)O)[C@H]1CC[C@H]2[C@@H]3CC[C@@H]4C[C@H](O)CC[C@]4(C)[C@H]3CC[C@]12C [NC10055] | 50 to 100% | < 50 nM | < 20% | 1000 to 2000 nM
C[C@H](CCC(=O)N(CCS(=O)(=O)O)Cc1ccccc1)[C@H]1CC[C@H]2[C@@H]3CC[C@@H]4C[C@H](O)CC[C@]4(C)[C@H]3CC[C@]12C [NC10056] | 50 to 100% | 50 to 100 nM | 20 to 50% | ≥ 2000 nM
CC(C)N(CCS(=O)(=O)O)C(=O)CC[C@@H](C)[C@H]1CC[C@H]2[C@@H]3CC[C@@H]4C[C@H](O)CC[C@]4(C)[C@H]3CC[C@]12C [NC10058] | > 100% | < 50 nM | < 20% | ≥ 2000 nM
C[C@H](CCC(=O)N(CCS(=O)(=O)O)C1CCOCC1)[C@H]1CC[C@H]2[C@@H]3CC[C@@H]4C[C@H](O)CC[C@]4(C)[C@H]3CC[C@]12C [NC10059] | > 100% | < 50 nM | < 20% | 1000 to 2000 nM
C[C@H](CCC(=O)N1CCC[C@H](S(=O)(=O)O)C1)[C@H]1CC[C@H]2[C@@H]3CC[C@@H]4C[C@H](O)CC[C@]4(C)[C@H]3CC[C@]12C [NC10060] | 50 to 100% | ≥ 200 nM | < 20% | ≥ 2000 nM
C[C@H](CCC(=O)N1CCC[C@@H](S(=O)(=O)O)C1)[C@H]1CC[C@H]2[C@@H]3CC[C@@H]4C[C@H](O)CC[C@]4(C)[C@H]3CC[C@]12C [NC10061] | > 100% | 100 to 200 nM | < 20% | 500 to 1000 nM
C[C@H](CCC(=O)N1CCC(S(=O)(=O)O)CC1)[C@H]1CC[C@H]2[C@@H]3CC[C@@H]4C[C@H](O)CC[C@]4(C)[C@H]3CC[C@]12C [NC10062] | > 100% | < 50 nM | < 20% | 500 to 1000 nM
C[C@H](CCC(=O)N1CC(S(=O)(=O)O)C1)[C@H]1CC[C@H]2[C@@H]3CC[C@@H]4C[C@H](O)CC[C@]4(C)[C@H]3CC[C@]12C [NC10063] | > 100% | < 50 nM | < 20% | 500 to 1000 nM
